What was measured:
Human NHE3 = target: T1, Human NHE3 (Homo sapiens, UniProt P48764); experiment: Cell-based NHE3 activity under prompt conditions (OK cells, BCECF pH recovery), human NHE3; conditions: prompt conditions
T1 construct: expressed in transfected cells; host or cells: Opossum kidney (OK) cells (ATCC), electroporation
T1 sequence (P48764 26-834): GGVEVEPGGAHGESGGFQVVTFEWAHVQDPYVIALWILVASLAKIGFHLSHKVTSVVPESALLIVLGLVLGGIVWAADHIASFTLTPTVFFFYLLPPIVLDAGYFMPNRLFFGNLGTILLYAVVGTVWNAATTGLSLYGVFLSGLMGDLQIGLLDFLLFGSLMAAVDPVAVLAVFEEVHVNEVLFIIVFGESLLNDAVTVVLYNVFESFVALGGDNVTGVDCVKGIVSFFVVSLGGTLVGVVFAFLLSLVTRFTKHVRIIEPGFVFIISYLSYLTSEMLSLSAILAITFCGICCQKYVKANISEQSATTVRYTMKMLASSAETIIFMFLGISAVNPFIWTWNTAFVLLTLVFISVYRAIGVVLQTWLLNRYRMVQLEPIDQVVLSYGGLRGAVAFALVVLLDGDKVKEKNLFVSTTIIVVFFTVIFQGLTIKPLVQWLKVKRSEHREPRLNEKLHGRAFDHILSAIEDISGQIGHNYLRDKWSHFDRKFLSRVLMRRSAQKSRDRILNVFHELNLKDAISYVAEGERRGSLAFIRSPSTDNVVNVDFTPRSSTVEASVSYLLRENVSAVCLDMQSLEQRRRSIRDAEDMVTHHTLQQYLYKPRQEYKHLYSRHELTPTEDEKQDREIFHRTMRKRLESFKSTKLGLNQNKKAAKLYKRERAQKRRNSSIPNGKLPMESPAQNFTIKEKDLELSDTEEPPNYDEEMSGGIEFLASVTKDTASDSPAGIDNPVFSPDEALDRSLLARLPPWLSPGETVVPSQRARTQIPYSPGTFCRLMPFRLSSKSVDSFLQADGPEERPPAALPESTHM
In short: (§1)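 OK cells electroporated with rat or human NHE3 gene, loaded 30 min at room temperature with 5 μM BCECF-AM in NH4Cl-HEPES pH 7.4.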

[1] = test system: phosphorus and calcium levels in the urine of rats; experiment: Urinary excretion of phosphate and calcium in rats (16 h overnight urine); type: in vivo, rat; conditions: rats, oral gavage, 16 h post-dose
Rat NHE3 = target: T2, Rat NHE3 (Rattus norvegicus, UniProt P26433); experiment: Cell-based NHE3 activity under prompt conditions (OK cells, BCECF pH recovery), rat NHE3; conditions: prompt conditions
T2 construct: expressed in transfected cells; host or cells: Opossum kidney (OK) cells (ATCC), electroporation
In short: as §1

[2] = test system: absorption of sodium from the intestinal lumen; experiment: Fecal form score (FFS) 16 h after oral dose in rats; type: in vivo, rat; conditions: oral gavage, 16 h post-dose, scale 1-5
In short: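 Eight-week-old Sprague-Dawley rats (n=6) dosed by oral gavage with compound or water vehicle between 4 and 5 PM, then housed in metabolic cages with food and water ad libitum. At 16 h, fecal form scored 1 (normal pellet) to 5 (liquid streams) by two observers; group mean reported.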

[3] = test system: absorption of sodium from the intestinal lumen; experiment: Inhibition of intestinal sodium absorption: urinary sodium (uNa) 16 h after single oral dose in rats; type: in vivo, rat; conditions: oral gavage, 16 h post-dose
In short: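 Eight-week-old Sprague-Dawley rats (n=6) given single oral gavage of compound or water vehicle in the late afternoon, then kept in metabolic cages with chow and water ad libitum. Urine collected over 16 h; sodium quantified by ion chromatography and expressed as % of vehicle mean, compared by one-way ANOVA with Dunnett's test.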

T2 sequence (P26433 29-831): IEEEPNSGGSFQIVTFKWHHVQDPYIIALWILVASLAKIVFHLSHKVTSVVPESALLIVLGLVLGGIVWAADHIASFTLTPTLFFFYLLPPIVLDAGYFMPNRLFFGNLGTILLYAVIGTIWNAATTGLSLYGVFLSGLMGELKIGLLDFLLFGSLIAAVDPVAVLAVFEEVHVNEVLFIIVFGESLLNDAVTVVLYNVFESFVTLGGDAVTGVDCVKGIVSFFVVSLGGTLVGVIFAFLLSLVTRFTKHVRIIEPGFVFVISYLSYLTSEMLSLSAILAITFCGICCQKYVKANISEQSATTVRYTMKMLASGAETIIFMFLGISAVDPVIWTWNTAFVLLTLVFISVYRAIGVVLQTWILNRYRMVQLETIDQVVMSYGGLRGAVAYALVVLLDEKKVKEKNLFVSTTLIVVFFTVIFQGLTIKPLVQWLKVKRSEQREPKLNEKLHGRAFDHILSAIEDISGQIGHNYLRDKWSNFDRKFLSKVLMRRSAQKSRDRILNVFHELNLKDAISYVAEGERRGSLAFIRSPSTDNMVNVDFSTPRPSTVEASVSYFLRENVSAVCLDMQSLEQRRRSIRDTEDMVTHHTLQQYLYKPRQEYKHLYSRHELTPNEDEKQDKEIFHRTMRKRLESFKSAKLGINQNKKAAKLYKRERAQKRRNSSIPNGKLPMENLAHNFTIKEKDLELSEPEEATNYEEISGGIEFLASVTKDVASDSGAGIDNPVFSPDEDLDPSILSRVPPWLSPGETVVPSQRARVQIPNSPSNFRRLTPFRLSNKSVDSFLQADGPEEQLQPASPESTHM

Row | Structure (SMILES) | Prompt Human NHE3 pIC50 (Human NHE3) | Urine P % of control ([1]; dose 3 mg/kg) [%] | Prompt Rat NHE3 pIC50 (Rat NHE3) | Fecal Form Score average ([2]; dose 3 mg/kg) | Urine Na % of control ([3]; dose 3 mg/kg) [%] | Urine P % of control ([1]; dose 10 mg/kg) [%] | Fecal Form Score average ([2]; dose 10 mg/kg) | Urine Na % of control ([3]; dose 10 mg/kg) [%] | Urine P % of control ([1]; dose 1 mg/kg) [%] | Fecal Form Score average ([2]; dose 1 mg/kg) | Urine Na % of control ([3]; dose 1 mg/kg) [%] | IC50 (Rat NHE3; read-out: Prompt Rat NHE3 pIC50 (converted)) [nM]
1 | CCN(CCOCCOCCNC(=O)NCCCN(CCCNC(=O)NCCOCCOCCN(CC)S(=O)(=O)c1cccc([C@@H]2CN(C)Cc3c(Cl)cc(Cl)cc32)c1)CCCNC(=O)NCCOCCOCCN(CC)S(=O)(=O)c1cccc([C@@H]2CN(C)Cc3c(Cl)cc(Cl)cc32)c1)S(=O)(=O)c1cccc([C@@H]2CN(C)Cc3c(Cl)cc(Cl)cc32)c1 [compound 132] | 7.70 | 88 | 6.00 | 1 | 65 | – | – | – | – | – | – | –
2 | C/C(=C\c1cc(F)c(Oc2ccc(S(=O)(=O)NCCOCCOCCOCCNC(=O)CN(CCN(CC(=O)O)CC(=O)NCCOCCOCCOCCNS(=O)(=O)c3ccc(Oc4c(F)cc(/C=C(\C)C(=O)N=C(N)N)cc4F)cc3)CC(=O)O)cc2)c(F)c1)C(=O)N=C(N)N [compound 27] | 8.40 | – | 7.50 | – | – | 91 | 1 | 51 | – | – | – | –
3 | N=C(N)Nc1nc(-c2cccc(N3CCN(CCOCCOCCOCCNC(=O)CCOCCOCCOCCOCCOCCC(=O)NCCOCCOCCOCCN4CCN(c5cccc(-c6nc(NC(=N)N)nc7ccc(Cl)cc67)c5)CC4)CC3)c2)c2cc(Cl)ccc2n1 [compound 23] | 8.55 | – | 6.87 | – | – | 95 | 1 | 73 | – | – | – | –
4 | CN1Cc2c(Cl)cc(Cl)cc2[C@@H](c2cccc(S(=O)(=O)NCCOCCOCCNC(=O)NCCCCNC(=O)NCCOCCOCCNS(=O)(=O)c3cccc([C@H]4CN(C)Cc5c(Cl)cc(Cl)cc54)c3)c2)C1 [compound 40] | <5.00 | – | <5.00 | – | – | 128 | 1 | 90 | 149 | 1 | 80 | –
5 | CN1Cc2c(Cl)cc(Cl)cc2[C@H](c2cccc(S(=O)(=O)NCCOCCOCCNC(=O)CCC(N)(CCC(=O)NCCOCCOCCNS(=O)(=O)c3cccc([C@@H]4CN(C)Cc5c(Cl)cc(Cl)cc54)c3)CCC(=O)NCCOCCOCCNS(=O)(=O)c3cccc([C@@H]4CN(C)Cc5c(Cl)cc(Cl)cc54)c3)c2)C1 [compound 88] | 7.93 | 75 | 7.07 | 3 | 22 | 69 | 5 | 21 | 77 | 1 | 84 | –
6 | CN1Cc2c(Cl)cc(Cl)cc2[C@H](c2cccc(S(=O)(=O)NCCOCCOCCNC(=O)NCCC(N)(CCNC(=O)NCCOCCOCCNS(=O)(=O)c3cccc([C@@H]4CN(C)Cc5c(Cl)cc(Cl)cc54)c3)CCNC(=O)NCCOCCOCCNS(=O)(=O)c3cccc([C@@H]4CN(C)Cc5c(Cl)cc(Cl)cc54)c3)c2)C1 [compound 168] | 8.13 | 50 | 7.35 | 1 | 56 | – | – | – | – | – | – | –
7 | CN1Cc2c(Cl)cc(Cl)cc2[C@H](c2cccc(S(=O)(=O)NCCOCCOCCNC(=O)NCCCC(CCCNC(=O)NCCOCCOCCNS(=O)(=O)c3cccc([C@@H]4CN(C)Cc5c(Cl)cc(Cl)cc54)c3)(CCCNC(=O)NCCOCCOCCNS(=O)(=O)c3cccc([C@@H]4CN(C)Cc5c(Cl)cc(Cl)cc54)c3)NC(=O)NC[C@H](O)[C@@H](O)[C@H](O)[C@H](O)CO)c2)C1 [compound 167] | 8.37 | 99 | 5.80 | 2 | 36 | – | – | – | – | – | – | –
8 | O=C(NCCOCCOCCNS(=O)(=O)c1ccc(O[C@H]2c3ccccc3C[C@@H]2N2CCCCC2)cc1)[C@H](O)[C@@H](O)C(=O)NCCOCCOCCNS(=O)(=O)c1ccc(O[C@H]2c3ccccc3C[C@@H]2N2CCCCC2)cc1 [compound 98] | 8.10 | – | 8.40 | – | – | 88 | 1 | 83 | – | – | – | –
9 | CN1CCN(C(=O)NC(CCC(=O)NCCOCCOCCNS(=O)(=O)c2cccc(C3CN(C)Cc4c(Cl)cc(Cl)cc43)c2)(CCC(=O)NCCOCCOCCNS(=O)(=O)c2cccc([C@@H]3CN(C)Cc4c(Cl)cc(Cl)cc43)c2)CCC(=O)NCCOCCOCCNS(=O)(=O)c2cccc([C@@H]3CN(C)Cc4c(Cl)cc(Cl)cc43)c2)CC1 (stereo in doubt) [compound 153] | 7.50 | 84 | 6.90 | 3 | 28 | – | – | – | – | – | – | –
10 | CN(CC(=O)NCCOCCOCCOCCN1CCN(c2ccc(-c3nc(NC(=N)N)nc4ccc(Cl)cc34)cc2)CC1)CC(=O)NCCOCCOCCOCCN1CCN(c2ccc(-c3c(Cl)ccc4nc(NC(=N)N)ncc34)cc2)CC1 [compound 21] | 7.00 | – | – | – | – | 101 | 1 | 66 | – | – | – | 794
11 | CN1Cc2c(Cl)cc(Cl)cc2[C@H](c2cccc(S(=O)(=O)NCCOCCOCCNC(=O)CCC(CCC(=O)NCCOCCOCCNS(=O)(=O)c3cccc([C@@H]4CN(C)Cc5c(Cl)cc(Cl)cc54)c3)(CCC(=O)NCCOCCOCCNS(=O)(=O)c3cccc([C@@H]4CN(C)Cc5c(Cl)cc(Cl)cc54)c3)NC(=O)CCC(=O)O)c2)C1 [compound 123] | 7.80 | 88 | 7.50 | 3 | 12 | – | – | – | 124 | 1 | 49 | –
12 | CN1Cc2c(Cl)cc(Cl)cc2[C@H](c2cccc(S(=O)(=O)NCCOCCOCCOCCNC(=O)CCC(CCC(=O)NCCOCCOCCOCCNS(=O)(=O)c3cccc([C@@H]4CN(C)Cc5c(Cl)cc(Cl)cc54)c3)(CCC(=O)NCCOCCOCCOCCNS(=O)(=O)c3cccc([C@@H]4CN(C)Cc5c(Cl)cc(Cl)cc54)c3)NC(=O)c3ccc(-c4ccc(Cl)cc4)cc3)c2)C1 [compound 91] | <5.00 | – | 5.30 | – | – | 56 | 1 | 77 | – | – | – | –
13 | CN(C)[C@H]1Cc2c(Cl)cc(Cl)cc2[C@@H]1Oc1ccc(S(=O)(=O)NCCOCCOCCNC(=O)Nc2ccc(NC(=O)NCCOCCOCCNS(=O)(=O)c3ccc(O[C@H]4c5cc(Cl)cc(Cl)c5C[C@@H]4N(C)C)cc3)cc2)cc1 [compound 152] | 8.70 | – | <5.00 | – | – | 74 | 1 | 26 | – | – | – | –
